In ChEMBL document CHEMBL5212743, “Selectivity Literature for EUbOPEN Chemogenomics Library wave 3” (2023):
pEC50, pKi: −log10 of the molar value. Each block holds one molecule with its values, some of them ahead of it.

What was measured:
[1] = target: Sodium-dependent dopamine transporter (Homo sapiens, UniProt Q01959); assay: Selectivity interaction (Enzyme panel (CEREP ligand profiling)) EUB0000328a SLC6A3; settings: at 10 µM
[2] = target: Sodium-dependent serotonin transporter (Homo sapiens) (UniProt P31645); assay: Selectivity interaction (Enzyme panel (CEREP ligand profiling)) EUB0000328a SLC6A4; settings: at 10 µM
Chain of Sodium-dependent serotonin transporter (Homo sapiens) (P31645 whole entry, looked up): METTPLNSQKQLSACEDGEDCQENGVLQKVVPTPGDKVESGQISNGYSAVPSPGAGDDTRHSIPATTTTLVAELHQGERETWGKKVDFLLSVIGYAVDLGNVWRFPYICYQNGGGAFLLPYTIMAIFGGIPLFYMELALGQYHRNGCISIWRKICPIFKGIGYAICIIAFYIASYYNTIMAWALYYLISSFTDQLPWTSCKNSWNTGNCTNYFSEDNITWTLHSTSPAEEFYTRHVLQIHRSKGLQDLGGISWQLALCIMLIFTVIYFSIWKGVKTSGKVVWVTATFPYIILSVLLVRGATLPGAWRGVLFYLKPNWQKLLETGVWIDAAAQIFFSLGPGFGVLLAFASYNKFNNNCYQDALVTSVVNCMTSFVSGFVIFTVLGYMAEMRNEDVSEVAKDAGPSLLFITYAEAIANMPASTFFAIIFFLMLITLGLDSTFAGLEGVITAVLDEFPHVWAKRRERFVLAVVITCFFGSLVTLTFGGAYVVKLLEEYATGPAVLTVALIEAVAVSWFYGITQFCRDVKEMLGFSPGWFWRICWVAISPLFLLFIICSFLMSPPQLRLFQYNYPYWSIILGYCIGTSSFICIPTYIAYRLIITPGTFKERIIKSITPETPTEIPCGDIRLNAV

[3] = target: T1, Gamma-aminobutyric acid receptor subunit alpha-1 (Homo sapiens, UniProt P14867); assay: Selectivity interaction (GPCR panel (PDSP screen)) EUB0000328a GABRA1
T1 sequence (P14867 whole entry): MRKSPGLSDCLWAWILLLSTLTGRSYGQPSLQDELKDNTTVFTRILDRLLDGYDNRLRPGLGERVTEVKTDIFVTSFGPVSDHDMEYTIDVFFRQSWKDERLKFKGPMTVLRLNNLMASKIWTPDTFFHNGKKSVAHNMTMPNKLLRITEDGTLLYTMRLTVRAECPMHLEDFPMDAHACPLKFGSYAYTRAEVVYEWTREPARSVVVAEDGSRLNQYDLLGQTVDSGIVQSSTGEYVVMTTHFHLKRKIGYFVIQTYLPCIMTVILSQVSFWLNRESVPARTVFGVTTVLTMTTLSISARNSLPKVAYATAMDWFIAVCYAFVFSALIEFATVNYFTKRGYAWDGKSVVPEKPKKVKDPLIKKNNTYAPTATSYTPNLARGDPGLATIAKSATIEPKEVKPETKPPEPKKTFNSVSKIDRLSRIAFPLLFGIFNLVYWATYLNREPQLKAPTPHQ

[4] = system: Tyrosine-protein kinase ABL1 (Homo sapiens), P00519 [H396P]; assay: Selectivity interaction (KinomeScan (DiscoverX)) EUB0000328a ABL1; settings: at 1 µM
[5] = target: T2, Serine/threonine-protein kinase LATS2 (Homo sapiens) (UniProt Q9NRM7); assay: Selectivity interaction (KinomeScan (DiscoverX)) EUB0000328a LATS2; settings: at 1 µM
T2 sequence (whole entry): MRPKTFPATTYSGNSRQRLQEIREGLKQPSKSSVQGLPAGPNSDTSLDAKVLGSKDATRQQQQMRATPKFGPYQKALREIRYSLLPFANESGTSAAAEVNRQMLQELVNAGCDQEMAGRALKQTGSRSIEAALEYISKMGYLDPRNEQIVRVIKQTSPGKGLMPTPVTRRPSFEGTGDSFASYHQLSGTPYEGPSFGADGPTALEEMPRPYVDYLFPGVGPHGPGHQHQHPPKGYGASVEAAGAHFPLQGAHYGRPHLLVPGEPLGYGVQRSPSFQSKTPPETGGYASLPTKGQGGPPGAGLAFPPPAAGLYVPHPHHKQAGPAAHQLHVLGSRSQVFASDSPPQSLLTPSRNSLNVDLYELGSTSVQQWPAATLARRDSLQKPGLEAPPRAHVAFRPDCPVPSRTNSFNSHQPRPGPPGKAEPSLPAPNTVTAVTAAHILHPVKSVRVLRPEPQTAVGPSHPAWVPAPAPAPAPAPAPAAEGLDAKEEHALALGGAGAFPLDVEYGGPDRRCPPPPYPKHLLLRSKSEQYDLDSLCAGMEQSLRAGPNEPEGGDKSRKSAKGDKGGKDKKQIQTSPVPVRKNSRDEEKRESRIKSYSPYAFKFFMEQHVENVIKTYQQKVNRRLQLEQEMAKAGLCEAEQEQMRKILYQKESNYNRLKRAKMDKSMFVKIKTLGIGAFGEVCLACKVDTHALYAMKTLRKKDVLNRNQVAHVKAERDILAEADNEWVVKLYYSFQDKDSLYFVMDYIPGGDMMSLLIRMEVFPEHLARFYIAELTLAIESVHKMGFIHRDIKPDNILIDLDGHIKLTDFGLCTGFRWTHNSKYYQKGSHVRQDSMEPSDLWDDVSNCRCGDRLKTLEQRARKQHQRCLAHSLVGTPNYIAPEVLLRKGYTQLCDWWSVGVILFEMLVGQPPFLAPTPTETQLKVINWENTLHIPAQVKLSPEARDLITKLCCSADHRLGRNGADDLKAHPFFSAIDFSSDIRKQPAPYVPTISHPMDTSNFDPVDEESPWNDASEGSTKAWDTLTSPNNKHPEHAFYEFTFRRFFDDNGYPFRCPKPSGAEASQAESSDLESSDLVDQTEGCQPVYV

[6] = target: Protein kinase C epsilon type (Homo sapiens) (UniProt Q02156); assay: Selectivity interaction (KinomeScan (DiscoverX)) EUB0000328a PRKCE; settings: at 1 µM
Chain of Protein kinase C epsilon type (Homo sapiens) (Q02156 whole entry): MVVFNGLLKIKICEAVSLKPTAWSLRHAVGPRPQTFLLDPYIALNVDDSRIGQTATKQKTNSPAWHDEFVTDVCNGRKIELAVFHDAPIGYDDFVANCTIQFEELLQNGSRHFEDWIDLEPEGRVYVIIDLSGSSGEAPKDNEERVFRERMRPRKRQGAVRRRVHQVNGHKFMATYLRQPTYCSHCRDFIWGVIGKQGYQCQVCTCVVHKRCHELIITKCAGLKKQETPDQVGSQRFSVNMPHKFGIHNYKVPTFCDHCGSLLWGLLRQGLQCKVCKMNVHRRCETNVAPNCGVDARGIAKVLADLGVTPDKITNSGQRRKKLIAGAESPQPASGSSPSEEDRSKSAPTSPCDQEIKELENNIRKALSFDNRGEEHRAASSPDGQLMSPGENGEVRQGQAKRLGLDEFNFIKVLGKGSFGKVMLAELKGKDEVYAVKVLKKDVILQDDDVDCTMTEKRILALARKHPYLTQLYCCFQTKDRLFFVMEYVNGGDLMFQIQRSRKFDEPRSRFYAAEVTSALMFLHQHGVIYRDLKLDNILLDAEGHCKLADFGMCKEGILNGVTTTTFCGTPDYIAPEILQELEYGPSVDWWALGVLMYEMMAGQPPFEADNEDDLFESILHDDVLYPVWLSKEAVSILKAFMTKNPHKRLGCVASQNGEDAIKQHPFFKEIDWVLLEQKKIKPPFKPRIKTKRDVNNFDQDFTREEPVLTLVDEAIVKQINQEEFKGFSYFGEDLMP

[7] = target: Protein arginine N-methyltransferase 5 (Homo sapiens, UniProt O14744); assay: Selectivity interaction (Methyltransferase panel (Scintillation proximity assay (SPA))) EUB0000212b PRMT5
[8] = target: T3, Histone-lysine N-methyltransferase SETD7 (Homo sapiens, UniProt Q8WTS6); assay: Selectivity interaction (Methyltransferase panel (Scintillation proximity assay (SPA))) EUB0000212b SETD7
T3 sequence (Q8WTS6 whole entry): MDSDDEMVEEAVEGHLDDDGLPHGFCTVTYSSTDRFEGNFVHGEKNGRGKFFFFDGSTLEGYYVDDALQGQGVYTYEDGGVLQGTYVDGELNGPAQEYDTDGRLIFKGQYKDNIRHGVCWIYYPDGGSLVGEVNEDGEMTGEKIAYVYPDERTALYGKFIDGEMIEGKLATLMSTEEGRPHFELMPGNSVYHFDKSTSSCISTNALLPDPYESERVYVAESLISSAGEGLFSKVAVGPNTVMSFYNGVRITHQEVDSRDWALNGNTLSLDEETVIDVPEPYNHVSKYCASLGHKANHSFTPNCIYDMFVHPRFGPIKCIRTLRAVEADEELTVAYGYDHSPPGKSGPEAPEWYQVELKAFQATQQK

[9] = target: DNA (cytosine-5)-methyltransferase 1 (Homo sapiens, UniProt P26358); assay: Selectivity interaction (Methyltransferase panel (Scintillation proximity assay (SPA))) EUB0000212b DNMT1
[10] = target: Histone-lysine N-methyltransferase 2A (Homo sapiens, UniProt Q03164); assay: Selectivity interaction (Methyltransferase panel (Scintillation proximity assay (SPA))) EUB0000212b MLL
[11] = target: Histone-lysine N-methyltransferase, H3 lysine-79 specific (Homo sapiens, UniProt Q8TEK3); assay: Selectivity interaction (Methyltransferase panel (Scintillation proximity assay (SPA))) EUB0000212b DOT1L
[12] = target: T4, Histone-lysine N-methyltransferase EZH1 (Homo sapiens, UniProt Q92800); assay: Selectivity interaction (Methyltransferase panel (Scintillation proximity assay (SPA))) EUB0000212b EZH1
T4 sequence (Q92800 whole entry): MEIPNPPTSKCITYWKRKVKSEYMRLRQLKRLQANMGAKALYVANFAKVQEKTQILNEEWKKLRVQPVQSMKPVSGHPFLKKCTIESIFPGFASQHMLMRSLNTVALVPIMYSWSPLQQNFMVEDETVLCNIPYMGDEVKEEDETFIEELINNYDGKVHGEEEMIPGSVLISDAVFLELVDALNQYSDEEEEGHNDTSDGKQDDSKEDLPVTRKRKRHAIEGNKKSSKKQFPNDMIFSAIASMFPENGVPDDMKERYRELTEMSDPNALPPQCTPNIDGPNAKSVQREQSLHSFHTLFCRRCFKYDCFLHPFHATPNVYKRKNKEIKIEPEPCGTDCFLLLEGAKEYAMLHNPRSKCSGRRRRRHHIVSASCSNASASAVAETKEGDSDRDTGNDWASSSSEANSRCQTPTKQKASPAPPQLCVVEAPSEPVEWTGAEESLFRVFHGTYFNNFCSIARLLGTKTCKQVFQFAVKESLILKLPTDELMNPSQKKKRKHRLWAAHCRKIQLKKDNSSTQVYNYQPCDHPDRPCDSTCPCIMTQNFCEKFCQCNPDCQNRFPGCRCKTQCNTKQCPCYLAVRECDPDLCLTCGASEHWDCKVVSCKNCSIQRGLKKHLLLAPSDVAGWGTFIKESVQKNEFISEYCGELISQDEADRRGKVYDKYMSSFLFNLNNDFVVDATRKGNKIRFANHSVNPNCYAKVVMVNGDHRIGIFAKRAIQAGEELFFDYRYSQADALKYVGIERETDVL

[13] = target: Histone-lysine N-methyltransferase EZH2 (Homo sapiens, UniProt Q15910); assay: Selectivity interaction (Methyltransferase panel (Scintillation proximity assay (SPA))) EUB0000212b EZH2
[14] = target: Histone-lysine N-methyltransferase NSD2 (Homo sapiens, UniProt O96028); assay: Selectivity interaction (Methyltransferase panel (Scintillation proximity assay (SPA))) EUB0000212b NSD2
[15] = target: Histone-lysine N-methyltransferase NSD3 (Homo sapiens, UniProt Q9BZ95); assay: Selectivity interaction (Methyltransferase panel (Scintillation proximity assay (SPA))) EUB0000212b NSD3
Chain of Histone-lysine N-methyltransferase NSD3 (Q9BZ95 whole entry): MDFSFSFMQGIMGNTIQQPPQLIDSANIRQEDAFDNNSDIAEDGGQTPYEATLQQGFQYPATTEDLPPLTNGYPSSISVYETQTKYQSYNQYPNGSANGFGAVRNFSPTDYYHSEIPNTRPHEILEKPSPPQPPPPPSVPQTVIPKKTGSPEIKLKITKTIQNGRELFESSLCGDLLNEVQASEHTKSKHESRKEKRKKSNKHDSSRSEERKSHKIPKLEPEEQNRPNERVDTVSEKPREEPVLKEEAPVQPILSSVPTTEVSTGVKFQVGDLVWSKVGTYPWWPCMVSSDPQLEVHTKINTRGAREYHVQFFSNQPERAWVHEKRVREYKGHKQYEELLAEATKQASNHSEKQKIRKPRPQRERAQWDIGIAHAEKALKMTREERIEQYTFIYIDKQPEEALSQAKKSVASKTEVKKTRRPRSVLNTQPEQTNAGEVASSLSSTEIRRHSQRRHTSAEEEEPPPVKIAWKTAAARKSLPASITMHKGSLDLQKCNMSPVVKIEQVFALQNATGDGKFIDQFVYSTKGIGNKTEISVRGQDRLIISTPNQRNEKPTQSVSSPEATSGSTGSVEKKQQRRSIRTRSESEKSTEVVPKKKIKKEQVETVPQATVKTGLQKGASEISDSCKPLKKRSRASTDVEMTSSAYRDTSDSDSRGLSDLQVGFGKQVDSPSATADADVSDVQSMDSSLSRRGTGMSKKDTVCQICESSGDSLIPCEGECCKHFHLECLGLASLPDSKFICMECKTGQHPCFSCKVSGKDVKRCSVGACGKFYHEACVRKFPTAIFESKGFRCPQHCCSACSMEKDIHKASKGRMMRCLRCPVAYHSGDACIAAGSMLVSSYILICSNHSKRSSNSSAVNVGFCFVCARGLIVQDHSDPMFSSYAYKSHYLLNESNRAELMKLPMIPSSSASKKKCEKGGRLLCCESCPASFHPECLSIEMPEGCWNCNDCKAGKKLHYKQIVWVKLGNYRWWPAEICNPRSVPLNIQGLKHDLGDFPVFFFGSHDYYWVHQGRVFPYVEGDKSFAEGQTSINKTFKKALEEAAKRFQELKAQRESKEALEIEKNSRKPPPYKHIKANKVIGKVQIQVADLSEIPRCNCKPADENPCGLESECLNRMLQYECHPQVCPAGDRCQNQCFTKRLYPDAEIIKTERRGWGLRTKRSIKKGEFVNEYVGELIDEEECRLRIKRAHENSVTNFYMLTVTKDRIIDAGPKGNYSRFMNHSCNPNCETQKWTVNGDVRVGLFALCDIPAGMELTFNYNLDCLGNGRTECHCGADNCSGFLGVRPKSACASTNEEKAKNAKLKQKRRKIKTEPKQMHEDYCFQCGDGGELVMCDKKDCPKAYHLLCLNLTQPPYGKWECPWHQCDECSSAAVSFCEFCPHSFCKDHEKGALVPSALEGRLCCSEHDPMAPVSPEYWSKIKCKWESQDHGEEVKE

[16] = target: Protein arginine N-methyltransferase 1 (Homo sapiens, UniProt Q99873); assay: Selectivity interaction (Methyltransferase panel (Scintillation proximity assay (SPA))) EUB0000212b PRMT1
[17] = target: Protein arginine N-methyltransferase 3 (Homo sapiens, UniProt O60678); assay: Selectivity interaction (Methyltransferase panel (Scintillation proximity assay (SPA))) EUB0000212b PRMT3
[18] = target: Protein arginine N-methyltransferase 6 (Homo sapiens, UniProt Q96LA8); assay: Selectivity interaction (Methyltransferase panel (Scintillation proximity assay (SPA))) EUB0000212b PRMT6
Chain of Protein arginine N-methyltransferase 6 (Q96LA8 whole entry): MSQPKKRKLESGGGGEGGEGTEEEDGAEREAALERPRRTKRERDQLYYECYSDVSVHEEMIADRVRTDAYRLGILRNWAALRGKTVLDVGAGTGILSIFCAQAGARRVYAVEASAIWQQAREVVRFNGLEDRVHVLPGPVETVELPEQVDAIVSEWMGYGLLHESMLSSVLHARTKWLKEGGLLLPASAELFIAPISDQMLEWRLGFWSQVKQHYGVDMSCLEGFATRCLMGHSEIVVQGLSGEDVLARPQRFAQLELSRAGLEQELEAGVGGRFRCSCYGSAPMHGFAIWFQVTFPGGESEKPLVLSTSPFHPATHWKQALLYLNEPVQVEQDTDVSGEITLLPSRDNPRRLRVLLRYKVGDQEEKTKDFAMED

[19] = target: Protein arginine N-methyltransferase 8 (Homo sapiens, UniProt Q9NR22); assay: Selectivity interaction (Methyltransferase panel (Scintillation proximity assay (SPA))) EUB0000212b PRMT8
Chain of Protein arginine N-methyltransferase 8 (Q9NR22 whole entry): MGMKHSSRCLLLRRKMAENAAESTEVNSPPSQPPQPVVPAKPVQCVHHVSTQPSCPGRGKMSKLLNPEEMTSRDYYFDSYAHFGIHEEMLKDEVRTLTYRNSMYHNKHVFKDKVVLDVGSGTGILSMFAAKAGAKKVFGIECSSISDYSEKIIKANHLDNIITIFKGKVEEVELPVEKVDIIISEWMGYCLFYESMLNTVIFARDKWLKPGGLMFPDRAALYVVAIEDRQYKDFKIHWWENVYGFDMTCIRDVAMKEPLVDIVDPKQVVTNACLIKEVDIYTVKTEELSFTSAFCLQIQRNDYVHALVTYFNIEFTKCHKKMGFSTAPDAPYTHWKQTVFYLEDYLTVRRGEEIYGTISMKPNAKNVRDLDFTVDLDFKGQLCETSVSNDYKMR

[20] = target: T5, N-lysine methyltransferase KMT5A (Homo sapiens, UniProt Q9NQR1); assay: Selectivity interaction (Methyltransferase panel (Scintillation proximity assay (SPA))) EUB0000212b SETD8
T5 sequence (Q9NQR1 whole entry): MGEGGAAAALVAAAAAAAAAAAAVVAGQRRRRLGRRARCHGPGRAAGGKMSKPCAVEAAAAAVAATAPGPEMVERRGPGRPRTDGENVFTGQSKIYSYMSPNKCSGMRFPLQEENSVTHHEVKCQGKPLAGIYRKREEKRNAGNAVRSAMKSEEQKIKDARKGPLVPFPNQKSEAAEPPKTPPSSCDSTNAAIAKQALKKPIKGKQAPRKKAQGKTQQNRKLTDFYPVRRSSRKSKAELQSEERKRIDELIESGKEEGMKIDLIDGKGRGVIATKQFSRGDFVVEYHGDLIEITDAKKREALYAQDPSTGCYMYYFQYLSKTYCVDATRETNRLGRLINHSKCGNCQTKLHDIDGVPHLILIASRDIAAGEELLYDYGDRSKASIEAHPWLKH

[21] = target: Histone-lysine N-methyltransferase SETDB1 (Homo sapiens, UniProt Q15047); assay: Selectivity interaction (Methyltransferase panel (Scintillation proximity assay (SPA))) EUB0000212b SETDB1
[22] = target: Histone-lysine N-methyltransferase SMYD3 (Homo sapiens, UniProt Q9H7B4); assay: Selectivity interaction (Methyltransferase panel (Scintillation proximity assay (SPA))) EUB0000212b SMYD3
[23] = target: Histone-lysine N-methyltransferase SUV39H2 (Homo sapiens, UniProt Q9H5I1); assay: Selectivity interaction (Methyltransferase panel (Scintillation proximity assay (SPA))) EUB0000212b SUV39H2
[24] = target: Histone-lysine N-methyltransferase KMT5B (Homo sapiens, UniProt Q4FZB7); assay: Selectivity interaction (Methyltransferase panel (Scintillation proximity assay (SPA))) EUB0000212b SUV420H1
Chain of Histone-lysine N-methyltransferase KMT5B (Q4FZB7 whole entry): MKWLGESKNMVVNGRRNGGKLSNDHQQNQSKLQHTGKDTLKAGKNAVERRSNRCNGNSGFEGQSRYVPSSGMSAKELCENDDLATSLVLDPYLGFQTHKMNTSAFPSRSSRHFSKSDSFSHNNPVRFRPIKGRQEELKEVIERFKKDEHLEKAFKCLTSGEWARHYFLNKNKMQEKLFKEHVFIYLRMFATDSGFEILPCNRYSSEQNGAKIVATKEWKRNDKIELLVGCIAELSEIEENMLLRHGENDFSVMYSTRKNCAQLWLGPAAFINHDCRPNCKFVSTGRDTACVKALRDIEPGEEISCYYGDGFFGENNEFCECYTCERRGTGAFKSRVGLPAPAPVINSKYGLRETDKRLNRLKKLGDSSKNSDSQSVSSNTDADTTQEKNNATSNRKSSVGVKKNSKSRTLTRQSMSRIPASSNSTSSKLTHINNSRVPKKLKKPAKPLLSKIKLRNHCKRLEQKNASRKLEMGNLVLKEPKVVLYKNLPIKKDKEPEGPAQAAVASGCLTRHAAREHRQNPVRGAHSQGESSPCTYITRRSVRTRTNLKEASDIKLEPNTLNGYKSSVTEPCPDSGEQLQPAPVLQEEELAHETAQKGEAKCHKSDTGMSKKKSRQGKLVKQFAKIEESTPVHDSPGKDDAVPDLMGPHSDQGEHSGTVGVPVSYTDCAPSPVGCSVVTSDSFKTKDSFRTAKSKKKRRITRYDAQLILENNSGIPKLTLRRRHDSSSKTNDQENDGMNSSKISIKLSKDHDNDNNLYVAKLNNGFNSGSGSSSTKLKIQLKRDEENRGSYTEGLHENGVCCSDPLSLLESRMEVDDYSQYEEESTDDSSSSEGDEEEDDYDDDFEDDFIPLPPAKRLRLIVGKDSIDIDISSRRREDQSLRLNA

[25] = target: Histone-lysine N-methyltransferase KMT5C (Homo sapiens, UniProt Q86Y97); assay: Selectivity interaction (Methyltransferase panel (Scintillation proximity assay (SPA))) EUB0000212b SUV420H2
Chain of Histone-lysine N-methyltransferase KMT5C (Q86Y97 whole entry): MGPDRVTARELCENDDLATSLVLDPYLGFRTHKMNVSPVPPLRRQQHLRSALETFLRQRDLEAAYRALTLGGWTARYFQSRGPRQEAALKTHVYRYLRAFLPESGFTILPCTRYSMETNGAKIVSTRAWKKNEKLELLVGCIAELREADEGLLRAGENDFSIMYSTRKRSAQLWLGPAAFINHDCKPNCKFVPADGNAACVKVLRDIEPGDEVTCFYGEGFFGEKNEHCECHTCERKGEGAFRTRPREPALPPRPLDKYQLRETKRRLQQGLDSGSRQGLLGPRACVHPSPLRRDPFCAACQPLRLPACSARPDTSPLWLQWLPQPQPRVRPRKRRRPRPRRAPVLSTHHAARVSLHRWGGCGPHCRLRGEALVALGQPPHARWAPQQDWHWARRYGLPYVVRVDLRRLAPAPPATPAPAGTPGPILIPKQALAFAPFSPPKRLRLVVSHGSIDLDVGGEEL

- % of inhibition [1]: 94%
- % of inhibition [2]: 99%
- pKi [3]: 5.96
- % of control [4]: 49%
- % of control [5]: 47%
- % of control [6]: 22%
SMILES: CNC(=O)Nc1ccc2c(c1)CC[C@@]21OC(=O)N(CC(=O)N(Cc2ccc(F)cc2)[C@@H](C)C(F)(F)F)C1=O [A-485]

- pEC50 [7]: < 4.30
- pEC50 [8]: < 4.30
- pEC50 [9]: < 4.30
- pEC50 [10]: < 4.30
- pEC50 [11]: < 4.30
- pEC50 [12]: < 4.30
- pEC50 [13]: < 4.30
- pEC50 [14]: < 4.30
- pEC50 [15]: < 4.30
- pEC50 [16]: < 4.30
- pEC50 [17]: < 4.30
- pEC50 [18]: < 4.30
- pEC50 [19]: < 4.30
- pEC50 [20]: < 4.30
- pEC50 [21]: < 4.30
- pEC50 [22]: < 4.30
- pEC50 [23]: < 4.30
- pEC50 [24]: < 4.30
- pEC50 [25]: < 4.30
SMILES: COc1cc2c(cc1OCCCN1CCCC1)N=C(N)C21CCC1
